The target in the assay is T1, voltage-dependent T-type calcium channel subunit alpha-1G (Cav3.2) (Homo sapiens, UniProt O95180).
T1 construct: expressed in transfected cells; host or cells: HEK293
T1 sequence (O95180 whole entry): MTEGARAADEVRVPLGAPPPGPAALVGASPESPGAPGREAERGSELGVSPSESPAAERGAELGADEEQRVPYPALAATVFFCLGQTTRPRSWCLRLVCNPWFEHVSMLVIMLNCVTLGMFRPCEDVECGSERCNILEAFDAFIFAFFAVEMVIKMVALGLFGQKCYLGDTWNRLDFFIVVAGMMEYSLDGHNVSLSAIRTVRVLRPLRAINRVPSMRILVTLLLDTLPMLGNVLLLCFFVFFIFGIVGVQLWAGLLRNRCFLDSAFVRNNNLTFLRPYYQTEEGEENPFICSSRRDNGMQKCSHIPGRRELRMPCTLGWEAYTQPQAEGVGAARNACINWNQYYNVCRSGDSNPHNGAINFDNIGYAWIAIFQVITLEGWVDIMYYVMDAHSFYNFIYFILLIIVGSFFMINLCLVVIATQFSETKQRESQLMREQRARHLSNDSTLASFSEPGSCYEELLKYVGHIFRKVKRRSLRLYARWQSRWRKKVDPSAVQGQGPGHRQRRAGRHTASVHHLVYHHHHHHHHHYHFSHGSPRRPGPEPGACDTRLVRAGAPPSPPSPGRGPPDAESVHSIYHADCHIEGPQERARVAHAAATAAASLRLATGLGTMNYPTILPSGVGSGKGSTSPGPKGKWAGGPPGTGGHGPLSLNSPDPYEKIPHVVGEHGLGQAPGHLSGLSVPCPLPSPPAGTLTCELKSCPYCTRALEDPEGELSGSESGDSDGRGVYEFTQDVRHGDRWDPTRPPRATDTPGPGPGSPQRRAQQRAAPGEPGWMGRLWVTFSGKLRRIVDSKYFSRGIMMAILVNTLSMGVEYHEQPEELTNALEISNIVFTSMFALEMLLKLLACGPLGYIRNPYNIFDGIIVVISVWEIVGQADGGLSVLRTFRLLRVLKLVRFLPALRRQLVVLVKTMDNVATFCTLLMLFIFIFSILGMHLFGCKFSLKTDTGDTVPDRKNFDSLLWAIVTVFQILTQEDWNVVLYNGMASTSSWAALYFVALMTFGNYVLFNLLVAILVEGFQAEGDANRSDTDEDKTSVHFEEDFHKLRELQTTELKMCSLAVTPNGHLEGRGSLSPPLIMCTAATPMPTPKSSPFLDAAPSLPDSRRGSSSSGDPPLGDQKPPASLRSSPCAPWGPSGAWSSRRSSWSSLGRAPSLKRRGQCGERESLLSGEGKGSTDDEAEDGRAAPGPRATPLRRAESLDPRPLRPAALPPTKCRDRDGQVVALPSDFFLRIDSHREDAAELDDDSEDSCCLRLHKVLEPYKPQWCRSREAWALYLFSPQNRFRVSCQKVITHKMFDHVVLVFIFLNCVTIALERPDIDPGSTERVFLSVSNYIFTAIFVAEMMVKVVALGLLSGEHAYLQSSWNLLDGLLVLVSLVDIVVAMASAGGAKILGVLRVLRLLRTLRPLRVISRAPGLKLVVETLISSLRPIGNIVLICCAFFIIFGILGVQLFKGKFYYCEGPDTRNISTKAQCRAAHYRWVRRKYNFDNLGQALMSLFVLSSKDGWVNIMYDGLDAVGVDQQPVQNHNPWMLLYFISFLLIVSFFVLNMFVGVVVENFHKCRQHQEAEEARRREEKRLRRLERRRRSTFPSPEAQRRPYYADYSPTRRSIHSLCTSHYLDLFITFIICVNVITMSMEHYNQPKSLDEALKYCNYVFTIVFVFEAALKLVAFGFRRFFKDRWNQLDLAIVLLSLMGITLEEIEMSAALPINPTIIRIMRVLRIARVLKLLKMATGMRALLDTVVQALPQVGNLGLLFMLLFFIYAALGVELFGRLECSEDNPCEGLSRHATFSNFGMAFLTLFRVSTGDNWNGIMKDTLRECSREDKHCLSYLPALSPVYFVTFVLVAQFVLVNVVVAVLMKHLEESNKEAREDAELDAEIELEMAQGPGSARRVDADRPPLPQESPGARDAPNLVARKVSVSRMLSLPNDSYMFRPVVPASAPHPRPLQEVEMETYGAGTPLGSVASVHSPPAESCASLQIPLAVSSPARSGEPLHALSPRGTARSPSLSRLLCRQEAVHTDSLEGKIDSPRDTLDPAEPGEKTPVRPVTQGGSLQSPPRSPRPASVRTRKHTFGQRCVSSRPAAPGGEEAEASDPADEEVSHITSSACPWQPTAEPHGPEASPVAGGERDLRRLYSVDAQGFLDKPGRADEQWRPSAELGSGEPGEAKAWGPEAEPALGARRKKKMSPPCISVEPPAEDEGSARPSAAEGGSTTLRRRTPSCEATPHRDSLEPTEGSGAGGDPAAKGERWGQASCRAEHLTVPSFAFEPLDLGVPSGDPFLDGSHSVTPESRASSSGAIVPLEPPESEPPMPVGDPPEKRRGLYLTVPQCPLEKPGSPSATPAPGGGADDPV
The experiment in a line: FLIPR calcium flux assay, HEK293 cells recombinantly expressing Cav3.2. It counts as cell-based. The following applies: Cav3.2-channel, Fluo-4-AM, 3 min incubation, stimulation with 10 mM CaCl2. The procedure, abridged: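 Calcium influx was triggered by adding CaCl2 to 10 mM final, 3 min after compounds in tetraethylammonium-based buffer, pH 7.2, reached Fluo-4-AM-loaded recombinant HEK293 cells. The integrated kinetic fluorescence signal per concentration gave concentration-response curves by non-linear sigmoidal regression.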
(In general: Calcium assays in cells follow changes in intracellular calcium, usually with a dye or a luminescent sensor.)
The IC50 is the concentration needed to halve the response being measured. Consider `CCN(C)c1ccc(CC(=O)Nc2ccn(Cc3ccc(F)c(F)c3)n2)cc1` [Example 130, N-[1-(3,4-Difluoro-benzyl)-1H-pyrazol-3-yl]-2-[4-(ethyl-methyl-amino)-phenyl]-acetamide], for which the IC50 amounted to 293 nM.

Regarding `COc1ccc(Cn2ccc(NC(=O)Cc3ccc(C(C)C)cc3)n2)nc1` [Example 131, 2-(4-Isopropyl-phenyl)-N-[1-(5-methoxy-pyridin-2-ylmethyl)-1H-pyrazol-3-yl]-acetamide], the IC50 is 88 nM.

Take `Cc1nc(Cn2ccc(NC(=O)Cc3ccc(C(C)C)cc3)n2)ccc1C#N` [Example 132, N-[1-(5-Cyano-6-methyl-pyridin-2-ylmethyl)-1H-pyrazol-3-yl]-2-(4-isopropyl-phenyl)-acetamide]: the IC50 stood at 51 nM.

With `CC(C)c1ccc(CC(=O)Nc2ccn(Cc3ccc(C#N)c(C4CC4)n3)n2)cc1` [Example 133, N-[1-(5-Cyano-6-cyclopropyl-pyridin-2-ylmethyl)-1H-pyrazol-3-yl]-2-(4-isopropyl-phenyl)-acetamide], the IC50 turned out to be 191 nM.

Take `CC(C)Cc1nc(Cn2ccc(NC(=O)Cc3ccc(C(C)C)cc3)n2)ccc1C#N` [Example 134, N-[1-(5-Cyano-6-isobutyl-pyridin-2-ylmethyl)-1H-pyrazol-3-yl]-2-(4-isopropyl-phenyl)-acetamide]: the half-maximal inhibitory concentration (IC50) amounted to 428 nM.

On to `Cc1nc2ccc(CC(=O)Nc3ccn(Cc4ccc(F)c(F)c4)n3)cc2[nH]1` [Example 135, N-[1-(3,4-Difluoro-benzyl)-1H-pyrazol-3-yl]-2-(2-methyl-3H-benzoimidazol-5-yl)-acetamide], for which the IC50 is 247 nM.

On to `Cc1nc2ccc(CC(=O)Nc3ccn(Cc4ccc(C#N)cc4)n3)cc2[nH]1` [Example 136, N-[1-(4-Cyano-benzyl)-1H-pyrazol-3-yl]-2-(2-methyl-3H-benzoimidazol-5-yl)-acetamide], for which the IC50 was 1570 nM.

With `Cc1nc2ccc(CC(=O)Nc3ccn(Cc4ccc(F)cc4)n3)cc2[nH]1` [Example 137, N-[1-(4-Fluoro-benzyl)-1H-pyrazol-3-yl]-2-(2-methyl-3H-benzoimidazol-5-yl)-acetamide], the IC50 is 313 nM.

On to `N#Cc1ccc(Cn2ccc(NC(=O)Cc3ccc(N4CC[C@@H](F)C4)nc3)n2)nc1` [Example 138, N-[1-(5-Cyano-pyridin-2-ylmethyl)-1H-pyrazol-3-yl]-2-[6-((R)-3-fluoro-pyrrolidin-1-yl)-pyridin-3-yl]-acetamide], for which the IC50 came to 756 nM.

Consider `N#Cc1ccc(Cn2ccc(NC(=O)Cc3ccc(N4CC[C@@H](F)C4)nc3)n2)cc1` [Example 140, N-[1-(4-Cyano-benzyl)-1H-pyrazol-3-yl]-2-[6-((R)-3-fluoro-pyrrolidin-1-yl)-pyridin-3-yl]-acetamide], for which the IC50 came out at 176 nM.

For the molecule `O=C(Cc1ccc(N2CC[C@@H](F)C2)nc1)Nc1ccn(Cc2ccc(F)cc2)n1` [Example 141, N-[1-(4-Fluoro-benzyl)-1H-pyrazol-3-yl]-2-[6-((R)-3-fluoro-pyrrolidin-1-yl)-pyridin-3-yl]-acetamide], the IC50 stood at 35 nM.

With `N#Cc1ccc(Cn2ccc(NC(=O)Cc3ccc(N4CC(F)(F)C4)nc3)n2)nc1` [Example 142, N-[1-(5-Cyano-pyridin-2-ylmethyl)-1H-pyrazol-3-yl]-2-[6-(3,3-difluoro-azetidin-1-yl)-pyridin-3-yl]-acetamide], the 50% inhibitory concentration (IC50) stood at 185 nM.

Take `O=C(Cc1ccc(N2CC(F)(F)C2)nc1)Nc1ccn(Cc2ccc(F)c(F)c2)n1` [Example 143, 2-[6-(3,3-Difluoro-azetidin-1-yl)-pyridin-3-yl]-N-[1-(3,4-difluoro-benzyl)-1H-pyrazol-3-yl]-acetamide]: the concentration for half-maximal inhibition (IC50) is 19 nM.

`N#Cc1ccc(Cn2ccc(NC(=O)Cc3ccc(N4CC(F)(F)C4)nc3)n2)cc1` [Example 144, N-[1-(4-Cyano-benzyl)-1H-pyrazol-3-yl]-2-[6-(3,3-difluoro-azetidin-1-yl)-pyridin-3-yl]-acetamide]: the IC50 is 160 nM.

Regarding `O=C(Cc1ccc(N2CC(F)(F)C2)nc1)Nc1ccn(Cc2ccc(F)cc2)n1` [Example 145, 2-[6-(3,3-Difluoro-azetidin-1-yl)-pyridin-3-yl]-N-[1-(4-fluoro-benzyl)-1H-pyrazol-3-yl]-acetamide], the IC50 amounted to 44 nM.

With `COc1ccc(Cn2ccc(NC(=O)Cc3ccc(N4CC(F)(F)C4)nc3)n2)cc1` [Example 146, 2-[6-(3,3-Difluoro-azetidin-1-yl)-pyridin-3-yl]-N-[1-(4-methoxy-benzyl)-1H-pyrazol-3-yl]-acetamide], the IC50 amounted to 136 nM.

Consider `CC(C)Cc1ccc(CC(=O)Nc2ccn(Cc3ccc(F)cc3)n2)cc1` [Example 147, N-[1-(4-Fluoro-benzyl)-1H-pyrazol-3-yl]-2-(4-isobutyl-phenyl)-acetamide], for which the half-maximal inhibitory concentration (IC50) was 13 nM.

For the molecule `CC(C)c1ccc(CC(=O)Nc2ccn(Cc3ccc(C#N)c(F)n3)n2)cc1` [Example 148, N-[1-(5-Cyano-6-fluoro-pyridin-2-ylmethyl)-1H-pyrazol-3-yl]-2-(4-isopropyl-phenyl)-acetamide], the IC50 amounted to 7.6 nM.

Turning to `CN(C)c1ccc(CC(=O)Nc2ccn(Cc3ccc(F)cn3)n2)cc1` [Example 149, 2-(4-Dimethylamino-phenyl)-N-[1-(5-fluoro-pyridin-2-ylmethyl)-1H-pyrazol-3-yl]-acetamide], the IC50 amounted to 85 nM.

For `CN(C)c1ccc(CC(=O)Nc2ccn(Cc3ccc(F)cn3)n2)cn1` [Example 150, 2-(6-Dimethylamino-pyridin-3-yl)-N-[1-(5-fluoro-pyridin-2-ylmethyl)-1H-pyrazol-3-yl]-acetamide], the IC50 is 682 nM.

Consider `CN(CC(F)F)c1ccc(CC(=O)Nc2ccn(Cc3ccc(C#N)cn3)n2)cn1` [Example 151, N-[1-(5-Cyano-pyridin-2-ylmethyl)-1H-pyrazol-3-yl]-2-{6-[(2,2-difluoro-ethyl)-methyl-amino]-pyridin-3-yl}-acetamide], for which the IC50 stood at 649 nM.

In the case of `N#Cc1ccc(Cn2ccc(NC(=O)Cc3ccc(N4CC[C@H](F)C4)nc3)n2)nc1` [Example 152, N-[1-(5-Cyano-pyridin-2-ylmethyl)-1H-pyrazol-3-yl]-2-[6-((S)-3-fluoro-pyrrolidin-1-yl)-pyridin-3-yl]-acetamide], the IC50 is 1160 nM.

Turning to `N#Cc1ccc(Cn2ccc(NC(=O)Cc3ccc(N4CC[C@H](F)C4)nc3)n2)cc1` [Example 154, N-[1-(4-Cyano-benzyl)-1H-pyrazol-3-yl]-2-[6-((S)-3-fluoro-pyrrolidin-1-yl)-pyridin-3-yl]-acetamide], the half-maximal inhibitory concentration (IC50) is 78 nM.

As for `O=C(Cc1ccc(N2CC[C@H](F)C2)nc1)Nc1ccn(Cc2ccc(F)cc2)n1` [Example 155, N-[1-(4-Fluoro-benzyl)-1H-pyrazol-3-yl]-2-[6((S)-3-fluoro-pyrrolidin-1-yl)-pyridin-3-yl]-acetamide], the IC50 is 70 nM.

`COc1ccc(Cn2ccc(NC(=O)Cc3ccc(N4CC[C@H](F)C4)nc3)n2)cc1` [Example 156, 2-[6-((S)-3-Fluoro-pyrrolidin-1-yl)-pyridin-3-yl]-N-[1-(4-methoxy-benzyl)-1H-pyrazol-3-yl]-acetamide]: the IC50 was determined as 179 nM.

Consider `CC(C)c1ccc(CC(=O)Nc2ccn(Cc3cc(Cl)c(C#N)cn3)n2)cc1` [Example 157, N-[1-(4-Chloro-5-cyano-pyridin-2-ylmethyl)-1H-pyrazol-3-yl]-2-(4-isopropyl-phenyl)-acetamide], for which the IC50 was determined as 34 nM.

(Values after patent publication US9932314B2, “Pyrazole compounds and their use as T-type calcium channel blockers” (IDORSIA PHARMACEUTICALS LTD, priority 2015, dated 2018).)
